Patent US4332818A, “1,4;3,6-Dianhydro-2,5-diazido-2,5-dideoxy-hexitols” (priority 1980, dated 1982)

Columns and labels:
[1] = test system: Mouse; test: Minimal hypnotic dose (HDmin), mouse; format: in vivo; details: ip
Description: (§1) The activity of the compounds of the Formula I has been tested and compared to that of Glutethimid in various tests. As test compound 1,4;3,6-dianhydro-2,5-diazido-2,5-dideoxy-L-mannitol is used.
(§2) In Table I the LD50 and HD50 values measured on mice are disclosed (HD=hypnotic dose). Table II contains the minimal hypnotic doses measured on various animals (HDmin), while in Table III the results of various CNS tests on mice are summarized.

[2] = test system: mice; test: CNS test: Rotating rod; format: in vivo; details: Mus musculus, ip
Description: as §1, §2

[3] = test system: mice; test: HD50 (hypnotic dose) on mice; format: in vivo; details: Mus musculus, HD = hypnotic dose
Description: as §1, §2

[4] = test system: Rabbit; test: Minimal hypnotic dose (HDmin), rabbit; format: in vivo; details: Oryctolagus cuniculus, ip
Description: as §1, §2

[5] = test system: mice; test: CNS test: Motility; format: in vivo; details: Mus musculus, po
Description: as §1, §2

[6] = test system: Rat; test: Minimal hypnotic dose (HDmin), rat; format: in vivo; details: ip
Description: as §1, §2

[7] = in vivo; details: mouse, mice
Description: as §1, §2

[8] = test system: Cat; test: Minimal hypnotic dose (HDmin), cat; format: in vivo; details: Felis catus, ip
Description: as §1, §2

[9] = test system: mice; test: CNS test: Tranquillizing effect (fighting test); format: in vivo; details: Mus musculus, po
Description: as §1, §2

[10] = test system: mice; test: CNS test: Narcosis potentiating; format: in vivo; details: Mus musculus, po
Description: as §1, §2

`CCC1(c2ccccc2)CCC(=O)NC1=O` (stereo not drawn) [Glutethimid, 3-ethyl-3-phenyl-2,6-dioxo-piperidine] showed a minimal effective dose [1] of 100 mg/kg, an ED50 [2] of 70 mg/kg and an ED50 ([3]; ip) of 135 mg/kg. For the same compound, the ED50 ([3]; po) was 200 mg/kg, the minimal effective dose [4] was 175 mg/kg and the ED50 [5] was 135 mg/kg. For the same compound, the minimal effective dose [6] was 100 mg/kg, the LD50 ([7]; ip) was 305 mg/kg and the LD50 ([7]; po) was 580 mg/kg. It also gave a minimal effective dose [8] of 125 mg/kg, an ED50 [9] of 40 mg/kg and an ED100 [10] of 30 mg/kg.
